Patent US7192906B2, “Substituted pyrazole derivatives, production process thereof, and herbicide compositions containing the derivatives” (SDS Biotech K.K., priority 2001, dated 2007)

What was measured:
Type in all cases: in vivo
Setaria viridis [1] = assay: Test Example 1 upland field foliage treatment; conditions: Table 4, upland field foliage treatment, index 0-5
In short: (§1)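 A leaf-surface application at an active-ingredient rate of 1 kg per hectare was made to 14-day-old plants in upland soil. Evaluation followed 21 days later using a six-grade scale, where grade 5 means at least 90% kill or phytotoxicity.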

Digitaria adscendens [2] = assay: Test Example 1 upland field foliage treatment; conditions: Table 4, upland field foliage treatment, index 0-5
In short: as §1

Stellaria media [3] = assay: Test Example 1 upland field foliage treatment; conditions: Table 4, upland field foliage treatment, index 0-5
In short: as §1

Chenopodium album [4] = assay: Test Example 1 upland field foliage treatment; conditions: Table 4, upland field foliage treatment, index 0-5
In short: as §1

[5] = tested on: wheat (Triticum aestivum); assay: Test Example 2 upland soil treatment, crop phytotoxicity; conditions: Table 5, upland soil treatment, index 0-5
In short: (§2)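 Dose of 1 kg active ingredient per hectare, given as diluted wettable powder to the soil surface the day after sowing in upland soil (~1 cm cover). Effect rated 21 days on: 5 for ≥90%, 4 for 70–<90%, down to 0 for <10%.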

soybean (Glycine max) [6] = assay: as above; conditions: Table 5, upland soil treatment, index 0-5
In short: as §2

Setaria viridis [7] = assay: Test Example 2 upland soil treatment; conditions: Table 5, upland soil treatment, index 0-5
In short: as §2

Digitaria adscendens [8] = assay: Test Example 2 upland soil treatment; conditions: Table 5, upland soil treatment, index 0-5
In short: as §2

Stellaria media [9] = assay: Test Example 2 upland soil treatment; conditions: Table 5, upland soil treatment, index 0-5
In short: as §2

Chenopodium album [10] = assay: Test Example 2 upland soil treatment; conditions: Table 5, upland soil treatment, index 0-5
In short: as §2

[11] = tested on: wheat (Triticum aestivum); assay: Test Example 1 upland field foliage treatment, crop phytotoxicity; conditions: Table 4, upland field foliage treatment, index 0-5
In short: as §1

soybean (Glycine max) [12] = assay: as above; conditions: Table 4, upland field foliage treatment, index 0-5
In short: as §1

| SMILES | Herbicidal activity SV: Setaria viridis (Setaria viridis [1]) | Herbicidal activity DA: Digitaria adscendens (Digitaria adscendens [2]) | Herbicidal activity SM: Stellaria media (Stellaria media [3]) | Herbicidal activity CA: Chenopodium album (Chenopodium album [4]) | Herbicidal activity (phytotoxicity) TA: Wheat (Triticum aestivum) [5] | Herbicidal activity (phytotoxicity) GM: Soybean (Glycine max) (soybean (Glycine max) [6]) | Herbicidal activity SV: Setaria viridis (Setaria viridis [7]) | Herbicidal activity DA: Digitaria adscendens (Digitaria adscendens [8]) | Herbicidal activity SM: Stellaria media (Stellaria media [9]) | Herbicidal activity CA: Chenopodium album (Chenopodium album [10]) | Herbicidal activity (phytotoxicity) TA: Wheat (Triticum aestivum) [11] | Herbicidal activity (phytotoxicity) GM: Soybean (Glycine max) (soybean (Glycine max) [12]) |
| --- | --- | --- | --- | --- | --- | --- | --- | --- | --- | --- | --- | --- |
| CNC(=O)C(Cn1cc(C)c(-c2ccc(F)c(Br)c2)n1)=NOC [Compound 83] | 3 (herbicidal effect of not less than 50% and less than 70%, or phytotoxicity of 50% or more and less than 70%) | 5 (herbicidal effect of not less than 90%, or phytotoxicity of 90% or more) | 4 (herbicidal effect of not less than 70% and less than 90%, or phytotoxicity of 70% or more and less than 90%) | 4 (herbicidal effect of not less than 70% and less than 90%, or phytotoxicity of 70% or more and less than 90%) | 0 (herbicidal effect of not less than 0% and less than 10%, or phytotoxicity of 0% or more and less than 10%) | 0 (herbicidal effect of not less than 0% and less than 10%, or phytotoxicity of 0% or more and less than 10%) | 5 (herbicidal effect of not less than 90%, or phytotoxicity of 90% or more) | 5 (herbicidal effect of not less than 90%, or phytotoxicity of 90% or more) | 5 (herbicidal effect of not less than 90%, or phytotoxicity of 90% or more) | 5 (herbicidal effect of not less than 90%, or phytotoxicity of 90% or more) | 0 (herbicidal effect of not less than 0% and less than 10%, or phytotoxicity of 0% or more and less than 10%) | 0 (herbicidal effect of not less than 0% and less than 10%, or phytotoxicity of 0% or more and less than 10%) |
| CNC(=O)C(Cn1cc(C)c(-c2cc(F)cc(C(F)(F)F)c2)n1)=NOC [Compound 88] | 4 (herbicidal effect of not less than 70% and less than 90%, or phytotoxicity of 70% or more and less than 90%) | 5 (herbicidal effect of not less than 90%, or phytotoxicity of 90% or more) | 5 (herbicidal effect of not less than 90%, or phytotoxicity of 90% or more) | 5 (herbicidal effect of not less than 90%, or phytotoxicity of 90% or more) | 0 (herbicidal effect of not less than 0% and less than 10%, or phytotoxicity of 0% or more and less than 10%) | 0 (herbicidal effect of not less than 0% and less than 10%, or phytotoxicity of 0% or more and less than 10%) | 4 (herbicidal effect of not less than 70% and less than 90%, or phytotoxicity of 70% or more and less than 90%) | 4 (herbicidal effect of not less than 70% and less than 90%, or phytotoxicity of 70% or more and less than 90%) | 5 (herbicidal effect of not less than 90%, or phytotoxicity of 90% or more) | 5 (herbicidal effect of not less than 90%, or phytotoxicity of 90% or more) | 0 (herbicidal effect of not less than 0% and less than 10%, or phytotoxicity of 0% or more and less than 10%) | 0 (herbicidal effect of not less than 0% and less than 10%, or phytotoxicity of 0% or more and less than 10%) |
